Measured values reported in patent publication US20210355501A1, “INTERLEUKIN-8 FOR MAINTENANCE OF HUMAN ACUTE MYELOID LEUKEMIA AND MYELODYSPLASTIC SYNDROME AND USES THEREOF” (Albert Einstein College of Medicine, priority 2018, published 2021).
Entries after “also recorded” stand apart in the source; their conditions may differ.

Assays:
IL8 = test: serum IL8 levels by ELISA in patients; format: in vivo, human; details: 3 patients
From the text: FIG. 1A-1C. IL8 is detectable in MDS/AML serum and correlated with disease severity. ELISA for IL8 was done on controls and MDS and AML patient serum samples. […] IL8 levels were increased after transformation of low risk MDS to higher risk MDS/AML (B) and decreased after treatment with 5-Azacytidine (C).
It was previously shown that IL8 mRNA is overexpressed in MDS and AML cells. It was now determined whether IL8 can be detected in serum of patients with MDS and AML. A total of 33 patients (MDS low risk (21), MDS high risk (6) and AML (6)) and 30 controls sera were collected and analyzed for IL8 levels by ELISA. […] Furthermore, IL8 levels went up in 3 patients that transformed from low risk MDS to higher risk MDS or AML (FIG. 1B). Additionally, IL8 levels dropped after treatment in another 3 patients that were treated with 5-Azacytidine (FIG. 1C).

AML cell lines = details: all AML cell lines; cited from earlier work
[1] = test system: healthy control CD34+ cells; details: cited from earlier work
CXCR2 = target: T1, CXCR2 (Homo sapiens, UniProt P25025); details: cited from earlier work
T1 sequence (P25025 1-360): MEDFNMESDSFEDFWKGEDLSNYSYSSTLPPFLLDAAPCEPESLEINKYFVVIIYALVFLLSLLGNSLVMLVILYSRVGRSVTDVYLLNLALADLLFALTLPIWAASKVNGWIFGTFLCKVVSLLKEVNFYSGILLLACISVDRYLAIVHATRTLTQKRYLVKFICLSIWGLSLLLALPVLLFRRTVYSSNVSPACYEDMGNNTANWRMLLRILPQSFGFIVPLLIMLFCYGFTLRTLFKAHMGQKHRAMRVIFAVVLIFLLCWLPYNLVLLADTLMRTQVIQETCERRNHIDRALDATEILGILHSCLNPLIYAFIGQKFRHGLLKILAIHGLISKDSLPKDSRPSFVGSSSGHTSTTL

[2] = test system: primary samples from AML and high risk MDS cases; details: cited from earlier work
[3] = test system: primary AML patient cells; test: AML cell engraftment in NSG mice pre-transplanted with doxycycline-induced hIL-8-transgenic bone marrow cells; format: in vivo, mouse; details: 4 months post-transplantation; for increase of AML cell engraftment vs uninduced control: p=0.0106, N=8
From the text: FIG. 3. Xenotransplantation of primary AML cells into NSG mice pre-transplanted with hIL8-transgenic and doxycycline-induced congenic bone marrow cells leads to a more than 10-fold increase (p=0.0106, N=8) of AML cell engraftment.
We have generated a new transgenic mouse model in which we inserted a doxycycline-inducible human IL-8 transgene into the immunocompromised NSG mouse strain. We then performed congenic transplantation of hIL-8-transgenic bone marrow cells into 8 parental NSG mice, followed by doxycycline-triggered induction of hIL-8 in 4 of the recipient mice. 4 uninduced mice served as a control. We then xenotransplanted 5×10^6 leukemic cells from an AML patient into these animals and determined AML cell engraftment in the bone marrow 4 months post-transplantation. […] We have now a novel transgenic mouse system available that permits for the first time the generation of robust primary xenografts and PDX models from AML and MDS patients' cells, which can be used for drug development and testing purposes as well as functional/mechanistic studies.

[4] = test system: patient-derived xenografts from MDS/AML; test: engraftment of patient-derived MDS/AML xenografts in NSG mice given exogenous recombinant human IL8; format: in vivo, mouse; details: for engraftment of primary MDS and AML patients' cells: 3 patient derived xenografts (1 AML, 2 MDS)
From the text: FIG. 2A-2E. Efficacy of human IL8 addition in patient-derived xenografts from MDS/AML. […] Averaged data in (C); data from individual subjects in (D). The improvement in engraftment is sustained (as shown for representative PDX) (E).

## Nc1ncn([C@@H]2O[C@H](CO)[C@@H](O)[C@H]2O)c(=O)n1 [5-Azacytidine]
IL8
  IL8 levels in serum after treatment: decreased; also recorded: dropped

## NS(=O)(=O)c1c(Cl)ccc(NC(=O)Nc2cccc(Cl)c2Cl)c1O [SB332235]
AML cell lines
  proliferation: dose dependent decrease in proliferation
[1]
  growth of healthy control CD34+ cells: only minimally affecting growth
CXCR2
  selectivity for CXCR2 over CXCR1: 100 fold
[2]
  proliferation in primary samples: significant inhibition of proliferation

## hIL-8: human IL-8 expressed from doxycycline-inducible transgene in transplanted bone marrow cells of NSG mice
[3]; doxycycline-induced hIL-8, 5×10^6 leukemic cells
  AML cell engraftment in the bone marrow (average): 42.2%
[3]
  increase of AML cell engraftment vs uninduced control: 10.4 fold
[3]; listed as hIL8
  increase of AML cell engraftment vs uninduced control: more than 10 fold

## rhIL8: exogenous recombinant human IL8 injected into xenotransplant recipient mice
[4]
  engraftment of primary MDS and AML patients' cells: increased engraftment
[4]; listed as IL8
  engraftment of primary MDS and AML patients' cells: highly significant increase
[4]; NSG mice, after 3 weeks of treatment, vs vehicle controls
  engraftment from AML sample: higher engraftment
